From article PMC7412073, “Pharmacokinetics and Metabolism of Liposome-Encapsulated 2,4,6-Trihydroxygeranylacetophenone in Rats Using High-Resolution Orbitrap Liquid Chromatography Mass Spectrometry” (Molecules, 2020)
Where two headings read alike, the source gives them in different places. Values belong to the compound of their own block, whether it stands above or below them.

Experiments:
[1] = Metabolite identification in rat blood, urine and feces (UHPLC-MS/MS); assay type: in vivo, Sprague-Dawley rats; design: key: B, U and F represent blood, urine and feces samples, respectively; B, U and F represent blood, urine and feces samples, respectively; B, U and F represent blood, urine and feces samples, respectively; details: rats dosed orally with 20 mg/kg liposomes-encapsulated tHGA, samples over 24 h
Procedure: Groups 4 to 6 were used for single-dose drug metabolism study. Each rat was kept in individual metabolic cages. Urine and faeces were collected from each rat in the tHGA-treated group 4 and control group 5 at four different times over a period of 24 h. The samples were stored at −80 °C until further analysis. For the determination of plasma metabolites, blood was sampled from each rat in the control group 6, according to the same procedure as in the pharmacokinetic study. Blood samples collected from the tHGA-treated group 2 in the pharmacokinetics study were also used for the metabolism study.
For the drug metabolism study, for each rat, plasma samples collected over a period of 24 h were combined and tHGA was similarly extracted from the samples. For the urine samples, for each rat, samples collected over the 24 h period were combined and centrifuged for 15 min at 14,000 rpm. The supernatant was then vacuum-evaporated at 40 °C to a volume of 5 mL, after which, 30 mL methanol was added, the mixture sonicated for 25 min, followed by centrifuging at 10,000 rpm for 15 min. The supernatant was again vacuum-concentrated at 40 °C, to a volume of 5 mL, filtered through 0.45 μm membrane filter into an LC-MS vial and then injected (10 µL) to UHPLC-MS/MS system for spectral acquisition.
[…] collected over 24 h was homogenized with distilled water in the ratio of 1 g to 3 mL and sonicated for 10 min. From this mixture, 3 mL was taken and mixed with 9 mL methanol. After that, the mixture was sonicated for 30 min and then centrifuged at 14,000 rpm for 15 min. The supernatant was taken to dryness using a rotary evaporator at 40 °C. The residue was then reconstituted in 1 mL ACN (80%), filtered through 0.45 μm membrane filter, and injected to the UHPLC-MS/MS system for acquisition of spectra.
For the identification of tHGA and its metabolites simultaneously, MS detection was operated under a heated electrospray ion source (H-ESI II) using positive/negative switching ionization mode to maximize metabolite coverage in every injection. The H-ESI parameters were optimized as follows: spray voltage (+) and (−) 4.2 and 3.5 kV respectively, capillary temperature 320 °C, S-lens RF level 55, sheath gas flow rate 45, auxiliary gas 10 and sweep gas 2 (manufacturer’s units). Nitrogen was used for the source, Orbitrap bath gas, and the higher energy collision dissociation (HCD) cell collision. The full-scan MS data were recorded across the mass range of 50–1500 m/z. The resolution was 70,000 (FWHM) at m/z 200, with automatic gain control (AGC) target of 1 × 10^6 ions and an auto maximum ion injection time (IT).
All MS data acquired using the Q Exactive MS were controlled by Xcalibur 4.0 software (Thermo Fisher Scientific). The MS data from plasma-, urine-, and feces-treated, as well as the control samples were analyzed using Compound Discoverer software 2.1 (Thermo Fisher Scientific) for the identification of tHGA metabolites. The software extracted information about metabolite m/z values depending on a list of expected metabolites. As no standards or literature information were available to confirm tHGA metabolites structure, tentative elucidation of the metabolites was performed according to Schymanski classification. A list of putative metabolites with the probable metabolism pathway was created for peaks based on MS, MS/MS fragmentation and the isotopic pattern of tHGA. The matching percentage between measured and theoretical MS/MS spectra was determined depending on the existence/absence of theoretical fragments in the MS/MS spectra generated experimentally. In addition, the site of metabolism was determined based on the tHGA structure with the help of a web server site for metabolism predictor [27, 28].

[2] = Single-dose pharmacokinetic study of free and liposome-encapsulated tHGA in rats (plasma, LC-HRMS); assay type: in vivo, Sprague-Dawley rats; details: for Fr (relative oral bioavailability): PO 20 mg/kg relative to IP 20 mg/kg tHGA-loaded liposomes, rats
Procedure: Thirty healthy male Sprague-Dawley (S.D.) rats, weighing between 180 and 225 g on the day of dosing, were kept in polypropylene cage base with stainless steel wire top clips for three days before the experiment. The living environment of the animals was controlled as follows: 12/12-h dark/light cycle, temperature maintained between 22 to 25 °C, daily feeding with commercial pellet food, and tap water. Rats were fasted 12 h before dosing and labeled with a designated number at the base of their tails. The rats were then randomly divided into six groups as follows: • Group 1 (n = 6) were dosed orally with 20 mg/kg of free tHGA. • Group 2 (n = 6) were dosed orally with 20 mg/kg of liposomes-encapsulated tHGA. • Group 3 (n = 6) were dosed intraperitoneally with 20 mg/kg of liposomes-encapsulated tHGA • Group 4 (n = 4) were dosed orally with 20 mg/kg of liposomes-encapsulated tHGA. • Group 5 (n = 4, control) were dosed orally with blank liposomes formulation (for urine and feces collection). • Group 6 (n = 4, control) were dosed orally with blank liposomes formulation (for blood collection).
Groups 1 to 3 were used for the single-dose pharmacokinetic study. An aliquot of 200 µL of blood was drawn from each rat via the tail vein into polypropylene tubes containing a disodium K2EDTA solution (10%) as an anticoagulant at the pre-specified time points; at 0.25, 0.5, 1.5, 2, 4, 8 and 24 h for groups 1 and 2 after PO dose, and at 0.08, 0.5, 1.5, 2, 4, 8 and 24 h for group 3 after IP dose. Blood samples were centrifuged at 14,000 rpm at 20 °C for 10 min to separate the plasma which was then stored under −80 °C until further analysis. Animals were allowed to feed two hours after the first sample time point.
For the pharmacokinetic study, the same procedure used in the preparation of the standard solutions was used to extract tHGA from plasma samples.
LC-MS analysis was performed using a Thermo Scientific™ Q Exactive™ Focus Hybrid Quadrupole-Orbitrap™ Mass Spectrometer (Thermo Fisher Scientific, Bremen, Germany) attached to a Thermo Scientific Dionex Ultimate 3000 Series RS pump coupled with a Thermo Scientific Dionex Ultimate 3000 Series TCC-3000RS column compartments and a Thermo Fisher Scientific Ultimate 3000 Series WPS-3000RS autosampler (Thermo Fisher Scientific, Sunnyvale, CA, USA) controlled by Xcalibur Software 4.0 (Thermo Fisher Scientific, Waltham, MA, USA). The chromatographic separation was carried out using a Hypersil GOLD C18 column (100 × 2.1 mm, 1.9 μm) (Thermo Fisher Scientific, Waltham, MA, USA) and the mobile phase consisted of water with 0.1% formic acid (solvent A) and acetonitrile with 0.1% formic acid (solvent B). Gradient elution was run at 0.3 mL/min, with 10% solvent B at the start (t = 0 min), increasing to 70% solvent B at t = 5 min. The gradient was then maintained for 3 min at 70% solvent B until t = 8 min before again increasing solvent B to 100% until the end of the run at t = 9.5 min. The temperature of the autosampler was set to 4 °C. For the metabolism study, the same chromatographic conditions were used with a different elution system. A linear gradient elution from 0% to 100% of solvent B for 45 min was used.
Mass spectrometric detection was operated under a heated electrospray ion source (H-ESI II) in negative ionization mode. The H-ESI parameters were optimized as follows: spray voltage 3.5 kV, capillary temperature 320 °C, S-lens RF level 55, sheath gas flow rate 45, auxiliary gas 10 and sweep gas 2 (manufacturer’s units). Nitrogen was used for the source, Orbitrap bath gas, and the higher energy collision dissociation (HCD) cell collision. A targeted SIM data-dependent MS/MS (tSIM/ddMS2) acquisition was used with an inclusion mass list containing m/z and retention time of tHGA. The resolution was 35,000 (FWHM) at m/z 200, with automatic gain control (AGC) target of 5 × 10^4 ions and an auto maximum ion injection time (IT). […]

[3] = Short- and long-term stability of tHGA in rat plasma QC samples; assay type: in vitro ADME; details: for Stability RE (%) Short-Term (4 °C): processed rat plasma sample, autosampler 4 °C, 24 h; for Stability RE (%) Short-Term (4 °C) / Stability RE (%) Long-Term (−80 °C): n = 6; for Stability RE (%) Long-Term (−80 °C): rat plasma, 1 month
Procedure: Short- and long-term stability studies of tHGA in plasma was assessed using six replicates at two concentration levels, LQC and HQC. The QC samples were analyzed against the standard curve which was freshly prepared. The short-term stability was evaluated by analyzing the processed QC samples kept in the autosampler (4 °C) for 24 h. For long-term stability, tHGA plasma samples in low and high concentrations were stored at −80 °C for 1 month.

[4] = PO, 20 mg/kg, male S.D rats, plasma, mean n = 6, listed as Free tHGA

- Source (sample in which the metabolite was detected) [1]: F
SMILES: CC(=O)c1c(O)cc(O)c(C/C=C(C)/C=C/C=C(C)C)c1O [M7]

- Source (sample in which the metabolite was detected) [1]: F
SMILES: CC(=O)c1c(O)cc(O)c(C/C=C(\C)CCC(O)C(C)(C)O)c1O (stereo not drawn) [M10]

- Fr (relative oral bioavailability) ([2]; listed as Free tHGA): 9.07%
- Fr (relative oral bioavailability) ([2]; listed as unformulated tHGA): 9.1%
- Cmax [2, 4]: 5.35 ng/mL
- t1/2 (elimination half-life) [2, 4]: 6.95 h
- Tmax ([2]; Sprague-Dawley, rat, PO, 20 mg/kg, male S.D rats, plasma, mean n = 6): 0.25 h
- AUC(0-t) ([2]; male, Sprague-Dawley, rat, plasma, 20 mg/kg, oral administration, rats (unit as printed in abstract), read-out: AUC0–24): 17.6 ng·h/mL
- Cmax ([2]; male, Sprague-Dawley, rat, plasma, po, 20 mg/kg, PO, male S.D rats, plasma, mean n = 6, read-out: Cmax): 5.4 ng/mL
- half-life ([2]; male, Sprague-Dawley, rat, plasma, po, 20 mg/kg, PO, male S.D rats, plasma, mean n = 6, read-out: t1/2 (elimination half-life) (converted)): 6.9 h
- Stability RE (%) Short-Term (4 °C) ([3]; 1.5 ng/mL tHGA (LQC)): −4.66 ± 11.9%
- Stability RE (%) Long-Term (−80 °C) ([3]; 1.5 ng/mL tHGA (LQC)): 5.93 ± 2.8%
- Stability RE (%) Short-Term (4 °C) ([3]; 70 ng/mL tHGA (HQC)): 5.34 ± 6.9%
- Stability RE (%) Long-Term (−80 °C) ([3]; 70 ng/mL tHGA (HQC)): 5.34 ± 5.1%
- long-term stability, accuracy ([3]; LQC and HQC plasma samples, 1 month at −80 °C): 5.3–5.9%
SMILES: CC(=O)c1c(O)cc(O)c(C/C=C(\C)CCC=C(C)C)c1O [tHGA, 2,4,6-trihydroxy-3-geranylacetophenone]

- Source (sample in which the metabolite was detected) [1]: B
SMILES: CC(=O)c1c(O)cc(OS(=O)(=O)O)c(C(O)/C=C(\C)CCC(O)=C(C)C)c1O (stereo not drawn) [M9]

Second part, the compound before the results:

SMILES: CC(=O)c1c(O)cc(O)c(C(O)/C=C(C)/C=C/C(O)=C(C)C)c1O (stereo not drawn) [M6]
- Source (sample in which the metabolite was detected) [1]: F, B

SMILES: CC(=O)c1c(O)cc(O)c(C(O)/C=C(\C)CCC=C(C)C)c1O (stereo not drawn) [M3]
- Source (sample in which the metabolite was detected) [1]: F, U

SMILES: CC(=O)c1c(O)cc(O)c(C(O)/C=C(\C)CCC(O)=C(C)C)c1O (stereo not drawn) [M4]
- Source (sample in which the metabolite was detected) [1]: F

SMILES: CC(=O)c1c(O)cc(O)c(C/C=C(\C)CCC(O)=C(C)C)c1O [M2]
- Source (sample in which the metabolite was detected) [1]: F, U

SMILES: CC(=O)c1c(O)cc(O)c(C/C=C(\C)CCCC(C)(C)O)c1O [M5]
- Source (sample in which the metabolite was detected) [1]: F
